Measured values from ChEMBL document CHEMBL1201862, “PubChem BioAssay data set” (2004).
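Briefly, cells in 96-well plates were exposed to five compound concentrations for 48 h, and endpoints were estimated by linear interpolation. GI50: concentration for 50% inhibition of growth.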 Activity calls are given as the source filed them. No stated cut-off is given here; in the data, active = GI50 up to about 1.1 µM and inactive = higher.

Key:
Assay in all cases: inhibition of tumour cell growth, NCI panel, 48 h
UACC-62 = test system: UACC-62
ACHN = test system: ACHN
KM12 = test system: KM12
HOP-62 = test system: HOP-62
UO-31 = test system: UO-31
RPMI-8226 = test system: RPMI-8226
DU-145 = test system: DU-145
SK-MEL-2 = test system: SK-MEL-2
HCT-116 = test system: HCT-116
HT-29 = test system: HT-29
OVCAR-4 = test system: OVCAR-4
MCF7 = test system: MCF7
HL-60 = test system: HL-60
SNB-19 = test system: SNB-19
IGROV-1 = test system: IGROV-1
SF-295 = test system: SF-295
NCI-H23 = test system: NCI-H23
T47D = test system: T47D
LOX IMVI = test system: LOX IMVI
BT-549 = test system: BT-549

Row | SMILES | GI50 (UACC-62) | GI50 (ACHN) | GI50 (KM12) | GI50 (HOP-62) | GI50 (UO-31) | GI50 (RPMI-8226) | GI50 (DU-145) | GI50 (SK-MEL-2) | GI50 (HCT-116) | GI50 (HT-29) | GI50 (OVCAR-4) | GI50 (MCF7) | GI50 (HL-60) | GI50 (SNB-19) | GI50 (IGROV-1) | GI50 (SF-295) | GI50 (NCI-H23) | GI50 (T47D) | GI50 (LOX IMVI) | GI50 (BT-549)
1 | Cc1c2c(C#N)nccc2c(C)c2c1c1ccccc1n2Cc1ccccc1 | > 100 µM (inactive) | > 100 µM (inactive) | > 100 µM (inactive) | > 100 µM (inactive) | > 100 µM (inactive) | > 100 µM (inactive) | > 100 µM (inactive) | > 100 µM (inactive) | > 100 µM (inactive) | > 100 µM (inactive) | > 100 µM (inactive) | 6.49 µM (inactive) | > 100 µM (inactive) | > 100 µM (inactive) | > 100 µM (inactive) | > 100 µM (inactive) | > 100 µM (inactive) | 63.5 µM (inactive) | > 100 µM (inactive) | 
2 | O=C1c2ccccc2-c2nc(-c3ccncc3)cc3c2c1nc1ccccc13 | 13.4 µM (inactive) | 8.32 µM (inactive) | 11.8 µM (inactive) | 6.55 µM (inactive) | 9.71 µM (inactive) | 11.4 µM (inactive) | 14.8 µM (inactive) | 11.3 µM (inactive) | 6.4 µM (inactive) | 24.9 µM (inactive) | 27.3 µM (inactive) | 16.5 µM (inactive) | 11 µM (inactive) | 23.6 µM (inactive) | 1.07 µM (active) | 11.3 µM (inactive) | 15.3 µM (inactive) |  | 14.5 µM (inactive) | 40.1 µM (inactive)
3 | C=C1c2nc3ccccc3n2C=C(c2ccc(Cl)cc2)N1c1ccccc1 | 18.3 µM (inactive) | 12.3 µM (inactive) | 12.3 µM (inactive) |  | 13.4 µM (inactive) | 28 µM (inactive) | 32.5 µM (inactive) | 22.5 µM (inactive) | 14 µM (inactive) |  | 10.5 µM (inactive) | 13 µM (inactive) | 41.1 µM (inactive) | 6.56 µM (inactive) | 7.73 µM (inactive) | 11.7 µM (inactive) | 11.7 µM (inactive) |  | 33.7 µM (inactive) | 6.64 µM (inactive)
4 | O=S(=O)(O)c1c(/N=N/c2c(O)ccc3ccccc23)ccc2ccccc12 | > 100 µM (inactive) |  | > 100 µM (inactive) | > 100 µM (inactive) | 76.7 µM (inactive) | > 100 µM (inactive) | > 100 µM (inactive) | > 100 µM (inactive) | > 100 µM (inactive) | > 100 µM (inactive) | > 100 µM (inactive) |  |  | > 100 µM (inactive) | 79.8 µM (inactive) | > 100 µM (inactive) | > 100 µM (inactive) | > 100 µM (inactive) | > 100 µM (inactive) | > 100 µM (inactive)
5 | CC(C)(C)[Si](C)(C)OCC1CCC(n2cnc3c(NC(=O)c4ccccc4)ncnc32)O1 (centres undefined) | 14 µM (inactive) | 19.2 µM (inactive) | 17.3 µM (inactive) | 22 µM (inactive) | 1.54 µM (inactive) | 33 µM (inactive) | 19.4 µM (inactive) | 19 µM (inactive) | 19 µM (inactive) | 19.1 µM (inactive) | 21.8 µM (inactive) | 23.9 µM (inactive) | 18 µM (inactive) | 18.9 µM (inactive) | 18.1 µM (inactive) | 18.2 µM (inactive) | 18.4 µM (inactive) | 26.4 µM (inactive) | 20.2 µM (inactive) | 
6 | CC(C)(C)OC(=O)NC(CSCc1ccc(C(=O)c2ccccc2)cc1)C(=O)O (centres undefined) |  | > 100 µM (inactive) | > 100 µM (inactive) | > 100 µM (inactive) | > 100 µM (inactive) | 61.5 µM (inactive) | > 100 µM (inactive) |  | > 100 µM (inactive) | > 100 µM (inactive) | 88.9 µM (inactive) | > 100 µM (inactive) | > 100 µM (inactive) | > 100 µM (inactive) | > 100 µM (inactive) | > 100 µM (inactive) | > 100 µM (inactive) |  | > 100 µM (inactive) | > 100 µM (inactive)
7 | CN(C)C1(C(=O)O)CC1 |  | > 100 µM (inactive) |  | > 100 µM (inactive) |  | > 100 µM (inactive) | > 100 µM (inactive) |  | > 100 µM (inactive) | > 100 µM (inactive) | > 100 µM (inactive) | > 100 µM (inactive) | > 100 µM (inactive) | > 100 µM (inactive) | > 100 µM (inactive) | > 100 µM (inactive) | > 100 µM (inactive) | > 100 µM (inactive) | > 100 µM (inactive) | 
8 | BrC1(c2ccccc2)C[n+]2c(-c3ccccc3)cc(-c3ccccc3)cc2-c2ccccc21 (centres undefined) |  | 1.42 µM (inactive) | 0.299 µM (active) | 0.611 µM (active) | 1.35 µM (inactive) | 0.127 µM (active) | 0.931 µM (active) | 0.317 µM (active) | 0.365 µM (active) | 0.34 µM (active) | 0.977 µM (active) | 0.184 µM (active) | 0.168 µM (active) | 0.551 µM (active) | 0.289 µM (active) | 1.03 µM (active) | 1 µM (active) |  | 0.363 µM (active) | 0.407 µM (active)
9 | O=c1c2cc([N+](=O)[O-])ccc2n2n1CCCC2 | > 100 µM (inactive) | > 100 µM (inactive) | > 100 µM (inactive) | > 100 µM (inactive) | 71.3 µM (inactive) | > 100 µM (inactive) | > 100 µM (inactive) |  | > 100 µM (inactive) | > 100 µM (inactive) | > 100 µM (inactive) |  | > 100 µM (inactive) | > 100 µM (inactive) | > 100 µM (inactive) | > 100 µM (inactive) | > 100 µM (inactive) | > 100 µM (inactive) | > 100 µM (inactive) | 
10 | CCOC1NC(=O)Oc2ccccc21 (centres undefined) | > 100 µM (inactive) | > 100 µM (inactive) | > 100 µM (inactive) | > 100 µM (inactive) | > 100 µM (inactive) |  | > 100 µM (inactive) | > 100 µM (inactive) | > 100 µM (inactive) | > 100 µM (inactive) | > 100 µM (inactive) | > 100 µM (inactive) | > 100 µM (inactive) | > 100 µM (inactive) | > 100 µM (inactive) | > 100 µM (inactive) | > 100 µM (inactive) |  | > 100 µM (inactive) | > 100 µM (inactive)
11 | O=C(O)c1cc2cc(c1)/N=C/c1ccccc1OCc1cccc(n1)COc1ccccc1/C=N/2 | 8.45 µM (inactive) | 23.2 µM (inactive) | 13 µM (inactive) | > 25 µM (inactive) | > 25 µM (inactive) | 7.41 µM (inactive) | > 25 µM (inactive) | 23.8 µM (inactive) | 9.14 µM (inactive) | 19 µM (inactive) | 12.2 µM (inactive) | 6.79 µM (inactive) | 12.2 µM (inactive) | 17.3 µM (inactive) | 20.4 µM (inactive) | 6.24 µM (inactive) | > 25 µM (inactive) |  |  | 23.6 µM (inactive)
